Assay [1] deals with T1, ligand-binding domain of RORγ (RORγ-LBD) (Homo sapiens, UniProt P51449).
T1 construct: purchased Invitrogen
T1 sequence (P51449 269-508 limits assumed): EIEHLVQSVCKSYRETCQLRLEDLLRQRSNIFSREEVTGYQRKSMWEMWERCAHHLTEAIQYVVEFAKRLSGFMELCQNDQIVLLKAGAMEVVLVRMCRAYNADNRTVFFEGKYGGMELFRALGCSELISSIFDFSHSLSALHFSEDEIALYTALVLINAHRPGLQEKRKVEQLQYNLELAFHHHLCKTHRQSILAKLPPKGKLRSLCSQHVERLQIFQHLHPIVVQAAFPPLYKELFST
The assay is described as follows: Inhibitory effect on RORγ-coactivator binding (LanthaScreen TR-FRET RORγ Coactivator Assay). As to conditions: at 33 μmol/L of the test compound; read-out: RORγ-coactivator binding inhibition rate (%). Here is the method:
The inhibitory effect of the cyclic amine derivative (I) or a pharmacologically acceptable salt thereof on the binding between a ligand-binding domain of RORγ (hereinafter referred to as RORγ-LBD) and a coactivator was evaluated using Invitrogen's LanthaScreen™TR-FRET Retinoid-Related Orphan Receptor (ROR) gamma Coactivator Assay kit utilizing time-resolved fluorescence energy transfer (TR-FRET).
The test compound was dissolved in DMSO and diluted with TR-FRET Coregulator Buffer D (Invitrogen) containing 5 mmol/L of DTT to have a final DMSO concentration of 1% before use. To each well of a 384-well black plate (Corning Inc.), 4 nmol/L of GST-fused RORγ-LBD (Invitrogen) diluted with the buffer mentioned above and the test compound were added. A well without addition of the test compound and without addition of GST-fused RORγ-LBD (background) and a well without addition of the test compound and with addition of GST-fused RORγ-LBD (control) were prepared. Next, 150 nmol/L of fluorescein-labeled TRAP220/DRIP-2 (Invitrogen) diluted with the buffer mentioned above and 32 nmol/L of terbium-labeled anti-GST antibody (Invitrogen) were added to each well. After incubating the plate at room temperature for 16 to 24 hours, the fluorescence at 495 nm and 520 nm when excited at 320 nm was measured for each well and the ratio (fluorescence value at 520 nm/fluorescence value at 495 nm) was calculated.
The fold change with addition of the test compound (ratio with addition of the test compound/ratio of the background), the fold change of the control (ratio of the control/ratio of the background), and the fold change of the background (ratio of the background/ratio of the background) were calculated, and then the inhibition rate of binding between RORγ-LBD and a coactivator (hereinafter referred to as RORγ-coactivator binding inhibition rate) (%) was calculated from Formula 1: RORγ-coactivator binding inhibition rate(%)=(1−((Fold change with addition of the test compound)−(Fold change of the background))/((Fold change of the control)−(Fold change of the background)))×100 Formula 1

Assay [2] deals with IL-17 production in mouse splenocytes. The assay is described as follows: Suppressive effect on IL-17 production by IL-23 stimulation in mouse splenocytes. The assay is classed as cell-based. The settings on record: Splenocyte, 72 h, at 5 μmol/L of the test compound, 10 ng/mL human IL-23, 3 days, read-out: IL-17 production inhibition rate (%). Here is the method:
Using mouse splenocytes, the suppressive effect of the cyclic amine derivative (I) or a pharmacologically acceptable salt thereof on IL-17 production by IL-23 stimulation was evaluated by a partially modified method mentioned in The Journal of Biological Chemistry, 2003, Vol. 278, No. 3, p. 1910-1914.
A single cell suspension was prepared from the spleen of C57BL/6J mice (male, 7 to 23 weeks old) (Charles River Laboratories Japan, Inc.) and splenocytes were prepared using Histopaque-1083 (Sigma-Aldrich Japan). The culture medium was used by adding 10% FBS (Gibco), 50 U/mL of penicillin 50 μg/mL of streptomycin (Gibco), 50 μmol/L of 2-mercaptoethanol (Gibco), and 100 U/mL of human IL-2 (Cell Science & Technology Institute, Inc.) to RPMI1640 medium (Gibco). The test compound was dissolved in DMSO and then diluted with the culture medium to have a final concentration of DMSO of 0.1% before use. Splenocytes (3×10^5 cells/well) prepared in the culture medium were seeded in wells of a 96-well flat-bottom plate (Corning Incorporated), the test compound and 10 ng/mL of human IL-23 (R & D systems, Inc.) were added thereto, and the cells were cultured at 37° C. under 5% CO2 for 3 days. A well without addition of human IL-23 and without addition of the test compound and a well with addition of human IL-23 and without addition of the test compound were prepared. After completion of the culture, the culture supernatant was collected and the IL-17 production amount in the supernatant was determined by ELISA method (R & D systems, Inc.).
The IL-17 production inhibition rate (%) was calculated from Formula 2. IL-17 production inhibition rate(%)=(1−((IL-17 production amount with addition of IL-23 and with addition of the test compound)−(IL-17 production amount without addition of IL-23 and without addition of the test compound))/((IL-17 production amount with addition of IL-23 and without addition of the test compound)−(IL-17 production amount without addition of IL-23 and without addition of the test compound)))×100 Formula 2

With `CC(=O)N1CC[C@@H](F)C[C@@H]1C(=O)Nc1ccc(-c2ccccc2OC(F)(F)F)c(Cl)c1` [Example 25, (2R,4R)-1-acetyl-N-(2-chloro-2′-(trifluoromethoxy)-[1,1′-biphenyl]-4-yl)-4-fluoropiperidine-2-carboxamide], in assay [1], the inhibition at 33 µM is 94.2%. In assay [2], the inhibition at 5 µM came to 99.4%.

On to `O=C(Nc1ccc(-c2ccccc2OC(F)(F)F)c(Cl)c1)[C@H]1CCCCN1C(=O)Cn1ccnn1` [Example 64, (R)-1-(2-(1H-1,2,3-triazol-1-yl)acetyl)-N-(2-chloro-2′-(trifluoromethoxy)-[1,1′-biphenyl]-4-yl)piperidine-2-carboxamide], for which the inhibition at 33 µM in assay [1] stood at 97.3%. Also, in assay [2], the inhibition at 5 µM was found to be 99.4%.

`CNCCC(=O)N1CCCCC1C(=O)Nc1ccc(-c2ccccc2OC(F)(F)F)c(Cl)c1` (centres unmarked) [Example 34, N-(2-chloro-2′-(trifluoromethoxy)-[1,1′-biphenyl]-4-yl)-1-(3-(methylamino)propanoyl)piperidine-2-carboxamide]: the inhibition at 5 µM in assay [2] turned out to be 100%.

For the compound `O=C(Nc1ccc(-c2ccccc2OC(F)(F)F)c(Cl)c1)C1CCCCN1C(=O)C(F)F` (centres unmarked) [Example 7, N-(2-chloro-2′-(trifluoromethoxy)-[1,1′-biphenyl]-4-yl)-1-(2,2-difluoroacetyl)piperidine-2-carboxamide], the inhibition at 5 µM in assay [2] turned out to be 99%.

Turning to `CNCCC(=O)N1CCCC[C@@H]1C(=O)Nc1ccc(-c2ccccc2OC(F)(F)F)c(Cl)c1` [Example 41, (R)-N-(2-chloro-2′-(trifluoromethoxy)-[1,1′-biphenyl]-4-yl)-1-(3-(methylamino)propanoyl)piperidine-2-carboxamide], the inhibition at 5 µM in assay [2] is 99.1%.

On to `CN(C)CCC(=O)N1CCCC[C@@H]1C(=O)Nc1ccc(-c2ccccc2OC(F)(F)F)c(Cl)c1` [Example 68, (R)-N-(2-chloro-2′-(trifluoromethoxy)-[1,1′-biphenyl]-4-yl)-1-(3-(dimethylamino)propanoyl)piperidine-2-carboxamide], for which, in assay [2], the inhibition at 5 µM came out at 99.4%.

Regarding `CC(=O)NCCC(=O)N1CCCCC1C(=O)Nc1ccc(-c2ccccc2OC(F)(F)F)c(Cl)c1` (centres unmarked) [Example 31, 1-(3-acetamidepropanoyl)-N-(2-chloro-2′-(trifluoromethoxy)-[1,1′-biphenyl]-4-yl)piperidine-2-carboxamide], the inhibition at 5 µM in assay [2] stood at 99.1%.

With `NCCC(=O)N1CCCCC1C(=O)Nc1ccc(-c2ccccc2OC(F)(F)F)c(Cl)c1` (centres unmarked) [Example 30, 1-(3-aminopropanoyl)-N-(2-chloro-2′-(trifluoromethoxy)-[1,1′-biphenyl]-4-yl)piperidine-2-carboxamide], in assay [2], the inhibition at 5 µM turned out to be 99.8%.

With `O=C(Nc1ccc(-c2ccccc2OC(F)(F)F)c(Cl)c1)[C@H]1CCCCN1C(=O)Cn1cnnc1` [Example 62, (R)-1-(2-(4H-1,2,4-triazol-4-yl)acetyl)-N-(2-chloro-2′-(trifluoromethoxy)-[1,1′-biphenyl]-4-yl)piperidine-2-carboxamide], the inhibition at 5 µM in assay [2] came to 100%.

Consider `CS(=O)(=O)N1CC[C@H](O)C[C@@H]1C(=O)Nc1ccc(-c2ccccc2OC(F)(F)F)c(Cl)c1` [Example 26, (2R,4S)—N-(2-chloro-2′-(trifluoromethoxy)-[1,1′-biphenyl]-4-yl)-4-hydroxy-1-(methylsulfonyl)piperidine-2-carboxamide], for which the inhibition at 5 µM in assay [2] worked out at 96.4%.

With `NCCC(=O)N1CCCC[C@@H]1C(=O)Nc1ccc(-c2ccccc2OC(F)(F)F)c(Cl)c1` [Example 38, (R)-1-(3-aminopropanoyl)-N-(2-chloro-2′-(trifluoromethoxy)-[1,1′-biphenyl]-4-yl)piperidine-2-carboxamide], the inhibition at 5 µM in assay [2] came out at 99%.

On to `CC(=O)N1CC[C@@H](O)C[C@@H]1C(=O)Nc1ccc(-c2ccccc2OC(F)(F)F)c(Cl)c1` [Example 27, (2R,4R)-1-acetyl-N-(2-chloro-2′-(trifluoromethoxy)-[1,1′-biphenyl]-4-yl)-4-hydroxypiperidine-2-carboxamide], for which, in assay [2], the inhibition at 5 µM was 97.4%.

On to `CN(C)CC(=O)N1CCCCC1C(=O)Nc1ccc(-c2ccccc2OC(F)(F)F)c(Cl)c1` (centres unmarked) [Example 6, N-(2-chloro-2′-(trifluoromethoxy)-[1,1′-biphenyl]-4-yl)-1-(2-(dimethylamino)acetyl)piperidine-2-carboxamide], for which the inhibition at 5 µM in assay [2] came out at 91.6%.

Consider `CC(=O)N(C)CCC(=O)N1CCCCC1C(=O)Nc1ccc(-c2ccccc2OC(F)(F)F)c(Cl)c1` (centres unmarked) [Example 35, N-(2-chloro-2′-(trifluoromethoxy)-[1,1′-biphenyl]-4-yl)-1-(3-(N-methylacetamide)propanoyl)piperidine-2-carboxamide], for which the inhibition at 5 µM in assay [2] is 94.9%.

For the compound `CC(=O)N(C)CC(=O)N1CCCCC1C(=O)Nc1ccc(-c2ccccc2OC(F)(F)F)c(Cl)c1` (centres unmarked) [Example 12, N-(2-chloro-2′-(trifluoromethoxy)-[1,1′-biphenyl]-4-yl)-1-(2-(N-methylacetamide)acetyl)piperidine-2-carboxamide], the inhibition at 5 µM in assay [2] was 96.1%.

As to `CNCC(=O)N1CCCCC1C(=O)Nc1ccc(-c2ccccc2OC(F)(F)F)c(Cl)c1` (centres unmarked) [Example 11, N-(2-chloro-2′-(trifluoromethoxy)-[1,1′-biphenyl]-4-yl)-1-(2-(methylamino)acetyl)piperidine-2-carboxamide], the inhibition at 5 µM in assay [2] was 94.1%.

Take `O=C(Nc1ccc(-c2ccccc2OC(F)(F)F)c(Cl)c1)[C@H]1CCCCN1C(=O)Cn1cncn1` [Example 63, (R)-1-(2-(1H-1,2,4-triazol-1-yl)acetyl)-N-(2-chloro-2′-(trifluoromethoxy)-[1,1′-biphenyl]-4-yl)piperidine-2-carboxamide]: in assay [2], the inhibition at 5 µM was found to be 99.9%.

With `CC(=O)NCC(=O)N1CCCCC1C(=O)Nc1ccc(-c2ccccc2OC(F)(F)F)c(Cl)c1` (centres unmarked) [Example 9, 1-(2-acetamideacetyl)-N-(2-chloro-2′-(trifluoromethoxy)-[1,1′-biphenyl]-4-yl)piperidine-2-carboxamide], the inhibition at 5 µM in assay [2] turned out to be 94.6%.

Regarding `CN(C)CCC(=O)N1CCCCC1C(=O)Nc1ccc(-c2ccccc2OC(F)(F)F)c(Cl)c1` (centres unmarked) [Example 33, N-(2-chloro-2′-(trifluoromethoxy)-[1,1′-biphenyl]-4-yl)-1-(3-(dimethylamino)propanoyl)piperidine-2-carboxamide], the inhibition at 5 µM in assay [2] came out at 98.3%.

For the compound `O=C(O)CCCC(=O)N1CCCC[C@@H]1C(=O)Nc1ccc(-c2ccccc2OC(F)(F)F)c(Cl)c1` [Example 70, (R)-5-(2-((2-chloro-2′-(trifluoromethoxy)-[1,1′-biphenyl]-4-yl)carbamoyl)piperidin-1-yl)-5-oxopentanoic acid], the inhibition at 5 µM in assay [2] is 99.7%.

With `CC(=O)N1CC[C@H](O)C[C@@H]1C(=O)Nc1ccc(-c2ccccc2OC(F)(F)F)c(Cl)c1` [Example 24, (2R,4S)-1-acetyl-N-(2-chloro-2′-(trifluoromethoxy)-[1,1′-biphenyl]-4-yl)-4-hydroxypiperidine-2-carboxamide], the inhibition at 5 µM in assay [2] amounted to 95.7%.

(Values after patent US10364222B2, “Cyclic amine derivative and medical use thereof” (Toray Industries, Inc., priority 2016, dated 2019).)
